Test results reported in ChEMBL document CHEMBL3108690, “Discovery and characterization of a novel dihydroisoxazole class of α-amino-3-hydroxy-5-methyl-4-isoxazolepropionic acid (AMPA) receptor potentiators” (J Med Chem, 2013).
Calls of active or inactive are those of the source. The rule behind the calls is not given here.

Legend:
[1] = Positive allosteric modulation of AMPAR in mouse embryonic stem cell-derived neurons assessed as intracellular Ca2+ flux by FLIPR assay; type: cell-based
Mus musculus [2] = species: Mus musculus; experiment: Positive allosteric modulation of AMPAR in mouse embryonic stem cell-derived neurons assessed as intracellular Ca2+ flux by FLIPR assay in presence of cyclothiazide relative to AMPA; type: cell-based
MDR1 = experiment: Efflux ratio of apparent permeability in MDCK cells expressing MDR1; type: ADME, cell-based, Canis lupus familiaris; conditions: dog
[3] = Apparent intrinsic clearance in human liver microsomes; type: ADME; conditions: read-out: CLH(app)
[4] = Apparent permeability in MDCK cells; type: ADME, cell-based, Canis lupus familiaris; conditions: dog
[5] = Terminal half life in Sprague-Dawley rat plasma at 0.2 mg/kg, sc qd; type: ADME, organism-based; set-up: dose 0.2 mg/kg, route subcutaneous; conditions: read-out: beta t1/2 (converted)
[6] = Ratio of total drug level from brain to plasma in Sprague-Dawley rat at 0.2 mg/kg, sc qd; type: ADME, organism-based; set-up: dose 0.2 mg/kg, route subcutaneous; conditions: read-out: BPR
Rattus norvegicus [7] = experiment: Toxicity in Sprague-Dawley rat assessed as induction of convulsion at 0.32 to 0.56 mg/kg, sc measured after 13 to 23 mins; type: organism-based; set-up: route subcutaneous; conditions: in vivo
human MDR1 = experiment: Efflux ratio of apparent permeability from basolateral to apical side over apical to basolateral side in MDCK cells transfected with human MDR1 at 2 uM; type: ADME, cell-based, Canis lupus familiaris; conditions: dog
Mus musculus [8] = experiment: Induction of cGMP level in sc dosed CD-1 mouse cerebellum administered as qd measured after 0.5 hrs by EIA; type: functional, organism-based
Rattus norvegicus [9] = experiment: Reversal of MK-801-mediated increase in low delta component of local field potential in Sprague-Dawley rat at 0.003 mg/kg, iv administered as bolus dose measured after 5 mins; type: functional, organism-based; set-up: dose 0.003 mg/kg
Mus musculus [10] = experiment: Ratio of unbound concentration in brain required to cause convulsion in CD-1 mouse at 0.32 to 0.56 mg/kg, sc to unbound concentration in brain required to cause induction of cGMP level in CD-1 mouse cerebellum at 0.32 mg/kg, sc
[11] = Fraction unbound in Sprague-Dawley rat brain at 0.01 mg/kg, iv; type: ADME, organism-based; set-up: dose 0.01 mg/kg, route intravenous
Rattus norvegicus [12] = experiment: Reversal of MK-801-mediated increase in low delta component of local field potential in Sprague-Dawley rat at 0.001 mg/kg, iv administered as bolus dose measured after 5 mins; type: functional, organism-based; set-up: dose 0.001 mg/kg
[13] = Ratio of free drug level from brain to plasma in Sprague-Dawley rat at 0.2 mg/kg, sc qd; type: ADME, organism-based; set-up: dose 0.2 mg/kg, route subcutaneous; conditions: read-out: K(p,uu,brain)
Mus musculus [14] = experiment: Toxicity in CD-1 mouse assessed as induction of convulsion at 0.32 to 0.56 mg/kg, sc measured after 5 to 11 mins; type: organism-based; set-up: route subcutaneous; conditions: in vivo
[15] = Fraction unbound in Sprague-Dawley rat plasma at 0.01 mg/kg, iv; type: ADME, organism-based; set-up: dose 0.01 mg/kg, route intravenous
Rattus norvegicus [16] = experiment: Reversal of MK-801-mediated decrease in paired-pulse facilitation in Sprague-Dawley rat at 0.003 mg/kg, iv administered as bolus dose measured after 5 mins; type: functional, organism-based; set-up: dose 0.003 mg/kg
[17] = Apparent permeability from apical to basolateral side in MDCK cells at 2 uM by LC-MS/MS analysis; type: ADME, cell-based, Canis lupus familiaris; conditions: dog
[18] = (§1) Ratio of unbound concentration in brain required to cause induction of cGMP level in CD-1 mouse cerebellum at 0.32 mg/kg, sc over unbound concentration in brain required to cause reversal of MK-801-mediated increase in low delta component of local field potential in Sprague-Dawley rat at 0.003 mg/kg, iv administered as bolus dose; type: functional
Rattus norvegicus [19] = experiment: Toxicity in Sprague-Dawley rat assessed as induction of tremor at 0.32 to 0.56 mg/kg, sc measured at 10 mins; type: organism-based; set-up: dose 0.32-0.56 mg/kg, route subcutaneous; conditions: in vivo
[20] = as §1, with “Therapeutic index, ratio” for “Ratio”, “convulsion” for “induction of cGMP level”, “Sprague-Dawley rat” for “CD-1 mouse cerebellum”, “0.32 to 0.56” for “0.32”, “to” for “over”; type: organism-based; conditions: read-out: TI
[21] = Terminal half life in Sprague-Dawley rat brain at 0.2 mg/kg, sc qd; type: ADME, organism-based; set-up: dose 0.2 mg/kg, route subcutaneous; conditions: read-out: beta t1/2 (converted)
Rattus norvegicus [22] = experiment: Reversal of MK-801-mediated decrease in paired-pulse facilitation in Sprague-Dawley rat at 0.001 mg/kg, iv administered as bolus dose measured after 5 mins; type: functional, organism-based; set-up: dose 0.001 mg/kg
[23] = Displacement of [3H]PF-04725379 from Sprague-Dawley rat AMPAR after 2 hrs by liquid scintillation counting analysis
[24] = Ratio of drug level from brain to plasma in CD-1 mouse at 0.1 mg/kg, sc qd measured after 0.5 hrs; type: ADME, organism-based; set-up: dose 0.1 mg/kg, route subcutaneous; conditions: read-out: BPR

Structure (SMILES) | EC50 [1] [nM] | Emax (Mus musculus [2]) [%] | efflux ratio at 2 µM (human MDR1) | Papp A→B at 2 µM [17] [×10⁻⁶ cm/s] | further results
CC(C)S(=O)(=O)NCC1CC(c2ccc(-c3ccccc3)c(F)c2)=NO1 (racemic) | 3210 | 138 | – | – | –
CC(=O)NC[C@@H]1CC(c2ccc(N3CCCC3)c(F)c2)=NO1 | 4400 | – | – | – | efflux ratio (MDR1): 0.98; microsomal CLint [3]: 26 µL/min/mg; Papp [4]: 35 ×10⁻⁶ cm/s
CC(C)S(=O)(=O)NCC1CC(c2cccc(F)c2)=NO1 (racemic) | > 31600 | – | – | – | –
CC(C)S(=O)(=O)NCC1CC(c2ccc(N3CCCC3)c(F)c2)=NO1 (racemic) | 155 | 128 | – | – | –
CC(C)S(=O)(=O)NC[C@@H]1CC(c2ccc(N3CCCC3)c(F)c2)=NO1 | 123 | 147 | 1.45 | 18.6 | half-life [5]: 24 min; Kp [6]: 1.04; Activity (Rattus norvegicus [7]): Toxic; Activity (Mus musculus [8]): Dose-dependent effect; Activity (Rattus norvegicus [9]): Active; Ratio (Mus musculus [10]): 5; fraction unbound [11]: 0.014; Activity (Rattus norvegicus [12]): inactive; Kp uu [13]: 0.54; Activity (Mus musculus [14]): Toxic; fraction unbound [15]: 0.027; Activity (Rattus norvegicus [16]): Active; Ratio [18]: 100; Activity (Rattus norvegicus [19]): Toxic; selectivity ratio [20]: 500; half-life [21]: 24 min; Activity (Rattus norvegicus [22]): inactive; Ki [23]: < 24 nM
CC(C)S(=O)(=O)NCC1CC(c2ccc(-c3ccccc3C#N)c(F)c2)=NO1 (racemic) | 86.9 | 152 | 1.16 | 12.9 | –
CC(=O)N[C@H]1CCN(c2ccc(C3=NO[C@H](CNS(=O)(=O)C(C)C)C3)cc2F)C1 | < 10 | 143 | 12.1 | 3.93 | Kp at 0.5 h [24]: 0.03
CC(C)S(=O)(=O)NCC1CC(c2ccc(-c3cccnc3)c(F)c2)=NO1 (racemic) | 294 | 157 | 0.84 | 22 | –
CC(C)S(=O)(=O)NCC1CC(c2ccc(N3CCCC3)cc2)=NO1 (racemic) | 253 | 169 | 0.89 | – | –
CC(C)S(=O)(=O)NC[C@H]1CC(c2ccc(N3CCCC3)c(F)c2)=NO1 | 4690 | 114 | 1.6 | – | Ki [23]: 5760 nM
CC(C)S(=O)(=O)NCC1CC(c2ccc(-c3cccc(C#N)c3)c(F)c2)=NO1 (racemic) | 1850 | 156 | 1.17 | 15.1 | –
CC(C)S(=O)(=O)NCC1CC(c2ccc(-c3ccc(C#N)cc3)c(F)c2)=NO1 (racemic) | 2640 | 124 | 1.4 | 16.7 | –
CC(C)S(=O)(=O)NC[C@@H]1CC(c2ccc(-c3ccccc3C#N)c(F)c2)=NO1 | < 10 | – | 1.18 | 29.1 | Ki [23]: 24 nM
